Legend:
[1] = Physical stability test of aqueous metronidazole compositions (crystal formation or precipitation); assay type: physicochemical; settings: for Results from stability test: 24 h room temperature then 7 days at about 4 °C
Method: The solubility enhancing effect of the combination of niacinamide and urea in increasing the solubility of metronidazole in the aqueous compositions is evaluated by physical stability of the prepared compositions.
Therefore, the formulations are subject to a physical stability test. The protocol for the stability test is as follows: metronidazole and the solubility enhancing agents are combined with water either at room temperature or elevated temperature while stirring until dissolved. The solutions are permitted to cool to room temperature. Customary auxiliaries and additives may be added to the aqueous solutions containing solubilized metronidazole and solubility enhancing agents. The solutions may be gelled by using the suitable gelling agents. The compositions both in gel or solution form are then packaged in clear glass vials and sealed. The vials are kept at room temperature for 24 hours and monitored for crystal formation or precipitation. After 24 hours, the vials are placed in a refrigerator maintained at a temperature of about 4° C. for 7 days. After 7 days, the vials are removed from the refrigerator. Evidence of crystal formation or precipitation is examined.
(§1) Each formulation was prepared by combining niacinamide and metronidazole in water (q.s 100%). The mixture was kept at a temperature of about 45° C. while stirring until dissolved. The solutions were permitted to cool to room temperature, packaged and sealed in glass vials. The stability tests described in Example 1 were performed and the test results were recorded.
as §1, with “urea” for “niacinamide”
as §1, with “urea, niacinamide,” for “niacinamide”, “kept either at room temperature or” for “kept”

[2] = at 25 °C; cited from earlier work

SMILES: NC(=O)c1cccnc1 [niacinamide]
- Concentration of niacinamide needed to obtain a stable aqueous solution of 1.0% metronidazole ([1]; concentration of urea is 1.0%): about 4.0%
- Urea concentration functionally equivalent to 1% niacinamide in inducing the solubility enhancing effect ([1]; from Examples 2 and 3, 1.0% metronidazole): about 2%
- Concentration of niacinamide required to obtain a stable aqueous solution of 1.0% metronidazole ([1]; niacinamide as the only solubility enhancing agent): about 5%
- Water solubility limit [2]: about 50 % by weight

SMILES: Cc1ncc([N+](=O)[O-])n1CCO [Metronidazole, 1-(2-hydroxyethyl)-2-methyl-5-nitroimidazole]
- Results from stability test ([1]; 1.0% metronidazole + 1.0% urea + 3.0% niacinamide in water): Crystals
- Results from stability test ([1]; 1.0% metronidazole + 1.0% urea + 4.0% niacinamide in water): Clear
- Results from stability test ([1]; 1.0% metronidazole + 2% niacinamide in water): Crystals formed
- Results from stability test ([1]; 1.0% metronidazole + 3% niacinamide in water): Crystals formed
- Results from stability test ([1]; 1.0% metronidazole + 3.0% urea + 3.0% niacinamide in water): Clear
- Results from stability test ([1]; 1.0% metronidazole + 4% niacinamide in water): Crystals formed
- Results from stability test ([1]; 1.0% metronidazole + 4.0% urea + 1.0% niacinamide in water): Crystals
- Results from stability test ([1]; 1.0% metronidazole + 5% niacinamide in water): Clear
- Results from stability test ([1]; 1.0% metronidazole + 5.0% urea + 1.0% niacinamide in water): Clear
- Results from stability test ([1]; 1.0% metronidazole + 5.0% urea + 1.0% niacinamide in water, listed as metronidazole): stable
- Results from stability test ([1]; 1.0% metronidazole + 5.0% urea + 2.0% niacinamide in water): Clear
- Results from stability test ([1]; 1.0% metronidazole + 7% urea in water): Crystals formed
- Results from stability test ([1]; 1.0% metronidazole + 7% urea in water, listed as metronidazole): not sufficient to solubilize
- Results from stability test ([1]; 1.0% metronidazole + 8% urea in water): Crystals formed
- Results from stability test ([1]; 1.0% metronidazole + 9% urea in water): Crystals formed
- Results from stability test ([1]; 1.0% metronidazole + 10% urea in water): Clear
- Results from stability test ([1]; 1.2% metronidazole + 10.0% urea + 2.0% niacinamide in water): Clear
- Results from stability test ([1]; 1.5% metronidazole + 15.0% urea + 4.0% niacinamide in water): Clear

SMILES: NC(N)=O [urea]
- Concentration of urea needed to obtain a stable aqueous solution of 1.0% metronidazole ([1]; concentration of niacinamide is 1.0%): ≥ 5.0%
- Concentration of urea required to obtain a stable aqueous solution of 1.0% metronidazole ([1]; urea as the only solubility enhancing agent): about 10%
- Water solubility limit [2]: about 50 % by weight

Source: US20080287513A1, “Topical compositions containing metronidazole” (priority 2007, published 2008)
